According to patent US20260183300A1, “PHARMACEUTICAL COMPOSITION AND USE THEREOF” (priority 2022, published 2026):

How the values were obtained:
[1] = studies have shown; cited from earlier work
THG15 cells = test: Cell viability assay (CCK-8); assay type: cell-based; settings: Homo sapiens, 72 hours, estimated IC50, read-out: IC50 (half maximal inhibitory concentration), cell viability
Method: Patient-derived tumor cell were obtained with the approval of the Ethics Committee of the Beijing Tsinghua Changgung Hospital in compliance with informed consent of the patient and their family. […] Briefly, the tissues were mechanically minced and then digested with 0.1% trypsin (Hyclone) and 10 U/ml DNasel (Roche) at 37° C. for 45 min. The tissues were passed through a 100-μm cell strainer after lysis of red blood cells and several washes. Cells that that passed through the filter were collected and added with EF medium composed of Neurobasal medium, 3 mM L-glutamine, 1×B27 supplement, 0.5×N2 supplement, 2 μg/mL heparin, 20 ng/mL recombinant human EGF (Sigma-Aldrich), 20 ng/mL recombinant human FGF2 (Sigma-Aldrich), and 0.5×antibiotic antimycotic complex. Fresh EF medium was replenished every 3 days during cell culture. Tumor cell spheres were dissociated using NeuroCult Chemical Dissociation kit (StemCell), and cells were passaged.
Panobinostat (LBH589) and Tazemetostat (EPZ-6438) were purchased from Selleck Chemicals and dissolved in 0.1% DMSO before use. About 5,000 THG15 cells were seeded into each well of a 96-well plate and cultured in EF medium for 24 hours prior to drug intervention. […] According to the instructions, cell viability was determined by using a CCK-8 kit (GK10001), and the optical density was measured at 450 nm using a SPARK reader (TECAN). […]

Compound	penetration of the blood-brain barrier [1]	IC50 (THG15 cells)
Cc1[nH]c2ccccc2c1CCNCc1ccc(/C=C/C(=O)NO)cc1 [panobinostat, Panobinostat]	can penetrate the blood-brain barrier	~1 µM
CCN(c1cc(-c2ccc(CN3CCOCC3)cc2)cc(C(=O)NCc2c(C)cc(C)[nH]c2=O)c1C)C1CCOCC1 [tazemetostat, Tazemetostat]		~50 µM
